Test results reported in patent US10500166B2, “Methods for the treatment of erectile dysfunction using fispemifene” (QUATRX PHARMACEUTICALS, priority 2007, dated 2019).

Columns and labels:
[1] = system: LH (luteinizing hormone); assay: Example 3 study in hypogonadal men: serum LH (ITT); format: in vivo, human; details: for LH, Max / LH, Mean ± SD / LH, Median / LH, Min: Baseline (Visit 2)
Method: (§1) A randomized, double-blind, placebo controlled, parallel-group study of once-daily doses of fispemifene (100, 200, and 300 mg/day) given for 4 weeks was conducted in a population of hypogonadal men. Subjects were required to meet all of the following inclusion criteria at screening and prior to randomization to be eligible for the study:
(§2) There were 77 subjects total. The number of subjects randomized to the 100 mg fispemifene, 200 mg fispemifene, 300 mg fispemifene, and placebo arms were 21, 21, 19, and 16, respectively.
(§3) Subjects were randomly assigned to one of four treatment groups in a 1:1:1:1 ratio: • Treatment A (100 mg): fispemifene 100 mg+placebo+placebo; • Treatment B (200 mg): fispemifene 100 mg+fispemifene 100 mg+placebo; • Treatment C (300 mg): fispemifene 100 mg+fispemifene 100 mg+fispemifene 100 mg; and • Treatment D (Placebo): placebo+placebo+placebo.
(§4) Subjects took one dose (three capsules) of study medication once a day at home for 4 weeks. Capsules were to be taken in the morning immediately after breakfast, with the exception of the morning of the Week 4 visit. Capsules were not to be taken on the morning of the Week 4 visit because trough plasma levels of fispemifene were determined by a blood sample taken at this visit. Each subject was randomly assigned to treatment with one of the 3 different dose regimens of fispemifene or placebo vehicle. Each subject received a 4 week supply of study drug.
(§5) Blood samples were taken from the subjects within 1 week prior to dosing with study drug to establish baseline values; after 2 and 4 weeks of randomization; and 2 weeks after the last dose of study drug. Serum was prepared from those samples and used to determine the mean % change from baseline in total testosterone, free testosterone, SHBG (sex hormone-binding globulin), DHT (dihydrotestosterone), E2 (estradiol), LH (luteinizing hormone), FSH (follicle stimulating hormone), and inhibin B.
(§6) 3. Percent change from baseline in SHBG, DHT, E2, LH, FSH, inhibin B, and testosterone/E2 ratio at Weeks 2, 4, and 6.

[2] = system: testosterone/E2 ratio; assay: Example 3 study in hypogonadal men: testosterone/E2 ratio (ITT); format: in vivo, human; details: for Testosterone/E2 Ratio % Change from Baseline to Week 2, Max / Testosterone/E2 Ratio % Change from Baseline to Week 2, Mean ± SD / Testosterone/E2 Ratio % Change from Baseline to Week 2, Median / Testosterone/E2 Ratio % Change from Baseline to Week 2, Min: Week 2, (Week minus Baseline) divided by Baseline; for Testosterone/E2 Ratio % Change from Baseline to Week 2, Max / Testosterone/E2 Ratio % Change from Baseline to Week 2, Mean ± SD / Testosterone/E2 Ratio % Change from Baseline to Week 2, Median / Testosterone/E2 Ratio % Change from Baseline to Week 2, Min / Testosterone/E2 Ratio % Change from Baseline to Week 4, Max / Testosterone/E2 Ratio % Change from Baseline to Week 4, Mean ± SD / Testosterone/E2 Ratio % Change from Baseline to Week 4, Median / Testosterone/E2 Ratio % Change from Baseline to Week 4, Min / Testosterone/E2 Ratio % Change from Baseline to Week 6, Max / Testosterone/E2 Ratio % Change from Baseline to Week 6, Mean ± SD / Testosterone/E2 Ratio % Change from Baseline to Week 6, Median / Testosterone/E2 Ratio % Change from Baseline to Week 6, Min: LOCF; for Testosterone/E2 Ratio % Change from Baseline to Week 4, Max / Testosterone/E2 Ratio % Change from Baseline to Week 4, Mean ± SD / Testosterone/E2 Ratio % Change from Baseline to Week 4, Median / Testosterone/E2 Ratio % Change from Baseline to Week 4, Min: Week 4, (Week minus Baseline) divided by Baseline; for Testosterone/E2 Ratio % Change from Baseline to Week 6, Max / Testosterone/E2 Ratio % Change from Baseline to Week 6, Mean ± SD / Testosterone/E2 Ratio % Change from Baseline to Week 6, Median / Testosterone/E2 Ratio % Change from Baseline to Week 6, Min: Week 6, (Week minus Baseline) divided by Baseline
Method: as §1, §2, §3, §4, §5, §6

[3] = 100 mg/day, to Week 6 (2 weeks after discontinuation)
[4] = 200 mg/day, to Week 6 (2 weeks after discontinuation)
[5] = 300 mg/day, to Week 6 (2 weeks after discontinuation)

For `OCCOCCOc1ccc(/C(=C(/CCCl)c2ccccc2)c2ccccc2)cc1` [Fispemifene, (Z)-2-{2-[4-(4-Chloro-1,2-diphenylbut-1-enyl)phenoxy]ethoxy}ethanol], the “LH, Max” value ([1]; 100 mg/day) was 13.50 IU/L, the “LH, Mean ± SD” value ([1]; 100 mg/day) was 4.43 ± 2.438 IU/L and the “LH, Median” value ([1]; 100 mg/day) was 4.10 IU/L. For the same molecule, the “LH, Min” value ([1]; 100 mg/day) was 1.50 IU/L, the “LH, % Change from Baseline, Max” value ([1]; 100 mg/day, to Week 2) was 141% and the LH, % Change from Baseline, Mean ± SD ([1]; 100 mg/day, to Week 2) was 0.39 ± 0.00496%. The “LH, % Change from Baseline, Median” value ([1]; 100 mg/day, to Week 2) was 29%, the “LH, % Change from Baseline, Max” value ([1]; 100 mg/day, to Week 4) was 203% and the “LH, % Change from Baseline, Median” value ([1]; 100 mg/day, to Week 4) was 49%. The “LH, % Change from Baseline, Max” value [1, 3] was 100%, the “LH, % Change from Baseline, Median” value [1, 3] was 0% and the “LH, Max” value ([1]; 200 mg/day) was 11.60 IU/L. For the same molecule, the “LH, Mean ± SD” value ([1]; 200 mg/day) was 4.25 ± 2.028 IU/L, the “LH, Median” value ([1]; 200 mg/day) was 3.60 IU/L and the “LH, Min” value ([1]; 200 mg/day) was 1.00 IU/L. The “LH, % Change from Baseline, Max” value ([1]; 200 mg/day, to Week 2) was 123%, the “LH, % Change from Baseline, Median” value ([1]; 200 mg/day, to Week 2) was 54% and the “LH, % Change from Baseline, Max” value ([1]; 200 mg/day, to Week 4) was 137%. The “LH, % Change from Baseline, Median” value ([1]; 200 mg/day, to Week 4) was 52%, the “LH, % Change from Baseline, Max” value [1, 4] was 80% and the “LH, % Change from Baseline, Median” value [1, 4] was 19%. For the same molecule, the “LH, Max” value ([1]; 300 mg/day) was 8.00 IU/L, the “LH, Mean ± SD” value ([1]; 300 mg/day) was 3.62 ± 1.506 IU/L and the “LH, Median” value ([1]; 300 mg/day) was 3.20 IU/L. The “LH, Min” value ([1]; 300 mg/day) was 1.90 IU/L, the “LH, % Change from Baseline, Max” value ([1]; 300 mg/day, to Week 2) was 134% and the “LH, % Change from Baseline, Median” value ([1]; 300 mg/day, to Week 2) was 63%. The “LH, % Change from Baseline, Max” value ([1]; 300 mg/day, to Week 4) was 178%, the “LH, % Change from Baseline, Median” value ([1]; 300 mg/day, to Week 4) was 42% and the “LH, % Change from Baseline, Max” value [1, 5] was 84%. For the same molecule, the “LH, % Change from Baseline, Median” value [1, 5] was 19%, the “effect on serum LH levels” value ([1]; hypogonadal men, 100-300 mg/day for 4 weeks) was “increased” and the “Testosterone/E2 Ratio % Change from Baseline to Week 2, Max” value ([2]; 100 mg) was 1.21. The “Testosterone/E2 Ratio % Change from Baseline to Week 2, Mean ± SD” value ([2]; 100 mg) was 0.21 ± 0.457, the “Testosterone/E2 Ratio % Change from Baseline to Week 2, Median” value ([2]; 100 mg) was 0.18 and the “Testosterone/E2 Ratio % Change from Baseline to Week 2, Min” value ([2]; 100 mg) was −0.39. For the same molecule, the “Testosterone/E2 Ratio % Change from Baseline to Week 4, Max” value ([2]; 100 mg) was 1.57, the “Testosterone/E2 Ratio % Change from Baseline to Week 4, Mean ± SD” value ([2]; 100 mg) was 0.22 ± 0.482 and the “Testosterone/E2 Ratio % Change from Baseline to Week 4, Median” value ([2]; 100 mg) was 0.13. The “Testosterone/E2 Ratio % Change from Baseline to Week 4, Min” value ([2]; 100 mg) was −0.29, the “Testosterone/E2 Ratio % Change from Baseline to Week 6, Max” value ([2]; 100 mg) was 0.411 and the “Testosterone/E2 Ratio % Change from Baseline to Week 6, Mean ± SD” value ([2]; 100 mg) was −0.002 ± 0.1993. For the same molecule, the “Testosterone/E2 Ratio % Change from Baseline to Week 6, Median” value ([2]; 100 mg) was 0.029, the “Testosterone/E2 Ratio % Change from Baseline to Week 6, Min” value ([2]; 100 mg) was −0.337 and the “Testosterone/E2 Ratio Actual Value at Baseline (Visit 2), Max” value ([2]; 100 mg) was 27.0. The “Testosterone/E2 Ratio Actual Value at Baseline (Visit 2), Mean ± SD” value ([2]; 100 mg) was 15.2 ± 6.39, the “Testosterone/E2 Ratio Actual Value at Baseline (Visit 2), Median” value ([2]; 100 mg) was 14.7 and the “Testosterone/E2 Ratio Actual Value at Baseline (Visit 2), Min” value ([2]; 100 mg) was 5.2. For the same molecule, the “Testosterone/E2 Ratio % Change from Baseline to Week 2, Max” value ([2]; 200 mg) was 0.93, the “Testosterone/E2 Ratio % Change from Baseline to Week 2, Mean ± SD” value ([2]; 200 mg) was 0.25 ± 0.418 and the “Testosterone/E2 Ratio % Change from Baseline to Week 2, Median” value ([2]; 200 mg) was 0.19. The “Testosterone/E2 Ratio % Change from Baseline to Week 2, Min” value ([2]; 200 mg) was −0.29, the “Testosterone/E2 Ratio % Change from Baseline to Week 4, Max” value ([2]; 200 mg) was 1.08 and the “Testosterone/E2 Ratio % Change from Baseline to Week 4, Mean ± SD” value ([2]; 200 mg) was 0.18 ± 0.387. For the same molecule, the “Testosterone/E2 Ratio % Change from Baseline to Week 4, Median” value ([2]; 200 mg) was 0.17, the “Testosterone/E2 Ratio % Change from Baseline to Week 4, Min” value ([2]; 200 mg) was −0.34 and the “Testosterone/E2 Ratio % Change from Baseline to Week 6, Max” value ([2]; 200 mg) was 0.937. The “Testosterone/E2 Ratio % Change from Baseline to Week 6, Mean ± SD” value ([2]; 200 mg) was 0.019 ± 0.3760, the “Testosterone/E2 Ratio % Change from Baseline to Week 6, Median” value ([2]; 200 mg) was −0.030 and the “Testosterone/E2 Ratio % Change from Baseline to Week 6, Min” value ([2]; 200 mg) was −0.517. The “Testosterone/E2 Ratio Actual Value at Baseline (Visit 2), Max” value ([2]; 200 mg) was 30.2, the “Testosterone/E2 Ratio Actual Value at Baseline (Visit 2), Mean ± SD” value ([2]; 200 mg) was 14.2 ± 5.73 and the “Testosterone/E2 Ratio Actual Value at Baseline (Visit 2), Median” value ([2]; 200 mg) was 14.9. The “Testosterone/E2 Ratio Actual Value at Baseline (Visit 2), Min” value ([2]; 200 mg) was 6.3.
